This is an account of results in PubChem BioAssay AID623910 (NMMLSC, 2012).

The data set has as its system mouse and human plasma, RED dialysis, LC/MS/MS, 4 h. Briefly: plasma protein binding, mouse and human, late-stage follow-up, ADME assay for GPR30 and estrogen receptor ligands, biochemical (AID 623910).

As to `CC(=O)c1ccc2c(c1)[C@@H]1C=CC[C@@H]1[C@H](c1cc3c(cc1Br)OCO3)N2`, the plasma protein binding (at 1 µM) is 99.8%; the plasma protein binding (human plasma binding, at 10 µM) was 99.8%; the plasma protein binding (mouse plasma binding, at 1 µM) turned out to be 99.8%; the plasma protein binding (mouse plasma binding, at 10 µM) is 99.5%.
